For data set [1] the following is noted: cited from earlier work.
The test system of data set [2] is Treg cells in mesenteric lymph node, spleen and colon. Put plainly: Activation test of Treg in DSS induction model (flow cytometry). The format is in vivo, C57 female mice. The protocol: The colon was digested with collagenase, and the mesenteric lymph nodes and spleen tissues were ground and sieved through 100 mesh to prepare single cell suspensions. The cell density was adjusted to 10^5 cell/100 μl, and the Treg amount was determined for each sample.
Related studies have shown that T cells, especially Treg cells, play a role in the protection of DSS inflammatory bowel disease model. In order to study the role of Treg in the DSS colitis model, three mesenteric lymph nodes, spleen and colon were evaluated based on trial 4, respectively.
In general terms: A flow cytometer gives signals particle by particle.

Data set [3] deals with DSS modeled mice. Put plainly: DSS induced model weight and colon length test. The data set is classed as in vivo, C57 female mice.
Data set [4] relates to SOD activity and MDA amount in colon tissue. On the procedure: (§1) C57 female mice were selected and weighed about 20 g. All mice were randomly divided into control group (control group), model group (DSS group), sulfasalazine group (AS group) and low dose group (PF3 group). The middle dose group (PF10 group) and the high dose group (PF30 group), a total of 6 groups, 10 mice in each group.
(§2) The control group was treated with deionized water and the remaining 5 groups were fed with 3% DSS solution.
(§3) During the period, the sulfasalazine group was intragastrically administered at a dose of 0.5 g/kg, and the PF-04447943 low-dose group, the middle-dose group, and the high-dose daily gavage were administered at a dose of 3 mg/kg, 10 mg/kg, and 30 mg/kg, respectively. The body weight, water bottle weight and the record were weighed daily. On the 8th day, the mice were sacrificed by deep anesthesia, and the colon, mesenteric lymph nodes, spleen and anus were taken. The length of the colon was measured and the colon was divided into three sections. The anal part specimens were fixed in formalin and the remaining specimens were stored frozen at −80° C. Isolating the mononuclear cells of colon, mesenteric lymph node and spleen, then staining separately, the distribution of DC cells and Treg cells in colon, mesenteric lymph nodes and spleen were determined by flow cytometry. IL-6, IL-12, TNF-α, IL-17 etc were measured by ELISA. SOD activity and MDA amount in colon tissue were measured, and the effect of PDE9A inhibitor PF-04447943 on mouse model was analyzed.
After the intestinal tissue homogenization, SOD activity and MDA amount in colon tissue were determined by SOD and MDA assay kits.

In data set [5] the test system is DSS mice. Put plainly: DSS-induced mouse model, overall comparison with sulfasalazine. The data set is classed as in vivo, C57 female mice. Conditions: high-dose PF-04447943 group (30 mg/kg) vs sulfasalazine at conventional dose (0.5 g/kg).
The subject of data set [6] is colonic mucin secretion in DSS model mice. The experiment in a line: Intestinal mucin secretion test in DSS-induced model. The data set is classed as in vivo, C57 female mice. The source says:
FIG. 3 is a control map of colonic mucin secretion in DSS model mice. It can be obtained from FIG. 3. The DSS group lost epithelial integrity, crypt structure, and goblet cell, company with immune cell infiltration, Smooth muscle cell hypertrophy and reduced secretory glycoprotein when compared with the control group.

Data set [7] relates to TNF-α, IL-17, IL-6, IL-12/IL-23 in colon tissue. On the procedure: as §1, §2, §3
After intestinal tissue homogenization, TNF-α, IL-17, IL-6, IL-12/IL-23 in colon tissue were determined by ELISA kit.

The subject of data set [8] is DC cells in colon and mesenteric lymph nodes. The experiment in a line: Activation test of intestinal mucosa DC in DSS induced model (flow cytometry). The format is in vivo, C57 female mice. On the procedure:
as §1, §2, §3
The colon was digested with collagenase, and the mesenteric lymph nodes were ground and sieved through 100 mesh to prepare single cell suspensions. The cell density was adjusted to […], and the DC cell amount was determined for each sample.
FIG. 5 is a control plot of total DC and mature DC in colon, mesenteric lymphatic cleansing in DSS model mice.

Setting [9] is: high dose group (30 mg/kg) vs DSS group and control group.
Setting [10] is: high, medium and low dose groups vs DSS group.
Setting [11] is: high, medium and low dose groups vs control and DSS groups.
Setting [12] is: high dose group (30 mg/kg) vs DSS group.

Where two headings read alike, the source gives them in different places.

For the compound “vedolizumab: α4β7 integrin antibody approved by the FDA in 2014 for moderate to severe UC and CD”, the “patients with adverse reactions” value in data set [1] (CD patients) is given as 37%; in data set [1] (UC patients), 29%. In addition, in data set [1] (patients treated with vedolizumab), the clinical improvement result is “significant Clinical improvement”.

With `C[C@@H]1CN(Cc2ncccn2)C[C@H]1c1nc2c(cnn2C2CCOCC2)c(=O)[nH]1` [PF-04447943], in data set [2] (conclusion, dose not stated), the “DSS-inhibited Treg activation” value is “significantly enhanced” and the “differentiation of CD4+Foxp3+ Treg cells” value is “significantly induced an increase”. Further, in data set [2] (setting [9]), the “CD4+FOXP3+ Treg cells in colon” value was “significantly higher than that of the DSS group and the control group”; the “CD4+FOXP3+ Treg cells in mesenteric lymph nodes” value is “significantly higher than that of the DSS group and the control group”; the “CD4+FOXP3+ Treg cells in spleen” value was “significantly higher than that of the DSS group and the control group”. Moreover, the “CD4+CD25+ Treg cells in colon” value in data set [2] (setting [10]) is “significantly higher in the colon than in the DSS group”. In data set [2] (setting [11]), the “CD4+CD25+ Treg cells in mesenteric lymph nodes” value is reported as “significantly lower” and the “CD4+CD25+ Treg cells in spleen” value is on record as “significantly lower”. Further, in data set [3] (PF30 group (30 mg/kg) vs DSS group), the colon length entry is “significant difference”. Also, the “weight loss and colon shortening in the DSS-induced model” value in data set [3] (conclusion, dose not stated) is “inhibited the weight loss and colon shortening”. Further, the “DSS-induced intestinal oxidative stress damage” value in data set [4] (conclusion, dose not stated) was “significantly inhibit”. For the same compound, the “MDA amount in colon tissue” value in data set [4] (drug group vs DSS group) is listed as “lower than that of the DSS group”. In data set [4] (setting [12]), the “MDA amount in colon tissue” value was “statistically different from the DSS group” and the “SOD activity in colon tissue” value was “improved compared with the DSS group”. Besides, the “efficacy in IL-6 secretion, SOD activity, MDA amount, activation of DC and regulation of Treg” value in data set [5] is “superior to the conventional drug sulfasalazine at conventional dose”. In addition, the “destruction of intestinal mucosal mucin secretion induced by DSS” value in data set [6] (conclusion, dose not stated) was “significantly inhibit”. Also, the “loss of epithelial integrity and crypt structure, loss of goblet cells, immune cell infiltration, smooth muscle cell hypertrophy, secretory glycoprotein reduction” value in data set [6] (low-dose, medium-dose and high-dose groups (3, 10, 30 mg/kg)) is on record as “gradually reversed”. The “protective effect on colonic epithelial cells” value in data set [6] (with increasing dose of PF-04447943 (3, 10, 30 mg/kg)) is reported as “gradually better”. The “DSS-induced inflammatory factors secreted by the intestinal mucosa” value in data set [7] (conclusion, dose not stated) is listed as “significantly inhibits”. In data set [7] (setting [12]), the “IL-6 level in colon tissue” value was “significantly lower than those in the DSS group”, the “IL-12/IL-23 level in colon tissue” value is reported as “statistically significant compared with the DSS group”, the “IL-17 level in colon tissue” value is “statistically significant compared with the DSS group” and the “TNF-α level in colon tissue” value was “statistically significant compared with the DSS group”. Further, the “IL-6 level in colon tissue” value in data set [7] (middle dose group (10 mg/kg) vs DSS group) is listed as “significantly lower than those in the DSS group”. The “migration of DC cells from the colon to the mesenteric lymph nodes and DC maturation” value in data set [8] (conclusion, dose not stated) was “can inhibit”. Further, in data set [8] (setting [10]), the “activated DC cells in mesenteric lymph node (MLN)” value is on record as “significantly lower than the DSS group”. Further, the “activated DC (mDC) cells in colon” value in data set [8] (low, medium and high dose groups (3, 10, 30 mg/kg) vs DSS group) is “significantly lower than the DSS group”. For the same compound, the “total DC cells in mesenteric lymph node (MLN)” value in data set [8] (low, medium and high groups (3, 10, 30 mg/kg) vs DSS group) is reported as “significantly lower than the DSS group”.

In the case of `O=C(O)c1cc(/N=N/c2ccc(S(=O)(=O)Nc3ccccn3)cc2)ccc1O` [sulfasalazine], the “activated DC cells in colon” value in data set [8] (sulfasalazine group 0.5 g/kg, compared with PF-04447943 dose groups) is listed as “lower than the high dose group”.

The values above are taken from patent US12213980B2, “Application of PDE9A inhibitor in preparation of products having elevated Treg content, drugs for preventing and treating inflammatory bowel disease and health care products” (ZHEJIANG UNIVERSITY, priority 2018, dated 2025).
